Laboratory results taken from patent publication US20030162777A1, “Novel N-acylated heterocycles” (Recordati S.A., priority 2001, published 2003).

target: T1, human 5HT1A-serotonergic receptor (Homo sapiens, UniProt P08908); assay: Radioligand binding to recombinant 5-HT1A receptors; conditions: [3H]8-OH-DPAT 1 nM, membranes of HeLa cells with human 5-HT1A receptor; Ki from IC50 by Cheng & Prusoff; read-out: Binding affinity for 5HT1A receptors, Ki
T1 construct: expressed in transfected cells; host or cells: HeLa (human cell line), stably transfected; cell membranes used
T1 sequence (P08908 1-422): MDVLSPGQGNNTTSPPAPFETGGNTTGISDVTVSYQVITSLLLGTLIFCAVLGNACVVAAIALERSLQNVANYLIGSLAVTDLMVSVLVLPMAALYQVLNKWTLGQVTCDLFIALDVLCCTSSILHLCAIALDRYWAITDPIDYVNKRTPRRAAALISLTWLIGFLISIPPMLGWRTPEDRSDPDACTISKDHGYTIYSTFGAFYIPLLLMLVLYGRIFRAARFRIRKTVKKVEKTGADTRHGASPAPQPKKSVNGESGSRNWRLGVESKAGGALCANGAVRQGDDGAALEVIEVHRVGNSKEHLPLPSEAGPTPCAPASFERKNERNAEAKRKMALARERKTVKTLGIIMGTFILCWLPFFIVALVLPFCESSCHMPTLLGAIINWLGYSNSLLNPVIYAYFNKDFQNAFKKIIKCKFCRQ
Description: Genomic clone G-21 coding for the human 5HT1A-serotonergic receptor was stably transfected in a human cell line (HeLa). HeLa cells were grown as monolayers in Dulbecco's modified Eagle medium (DMEM), containing 10% foetal bovine serum, gentamicin ([…]) and 5% carbon dioxide, at 37° C. The cells were detached from the growth flask at 95% confluence by a cell scraper and were lysed in cold 5 mM Tris and 5 mM EDTA buffer (pH 7.4). The homogenates were centrifuged at 40000×g×20 minutes and the pellets were resuspended in a small volume of cold 5 mM Tris and 5 mM EDTA buffer (pH 7.4) and immediately frozen and stored at −70° C. until use. On the day of experiment, the cell membranes were resuspended in incubation buffer: 50 mM Tris HCl (pH 7.4), 2.5 mM MgCl2, […] (Fargin et al., Nature 335, 358-360, 1988). The membranes were incubated in a final volume of 1 ml for 30 minutes at 30° C. with 1 nM [^3H]8-OH-DPAT, in the absence or presence of the test compounds. Non-specific binding was determined in the presence of 10 μM 5-HT. Incubation was stopped by addition of cold Tris-HC 1 buffer and rapid filtration through a 0.2%-polyethyleneimine-pretreated Whatman-GF/B or Schleicher-&-Schuell-GF52 filter.
The affinity of the tested compounds was evaluated as inhibition of specific binding of the radioligand to 5-HT1A receptors (IC50) by using the non-linear curve-fitting program Allfit (De Lean et al., Am. J. Physiol. 235, E97-E102 (1978). The IC50 value was converted to an affinity constant (Ki) by the equation of Cheng & Prusoff (Cheng Y. C., Prusoff W. H., Biochem. Pharmacol. 22, 3099-3108 (1973)).

SMILES | Ki
O=S(=O)(c1ccccc1)N1c2ccccc2CCC1CN1CCN(c2cccc3[nH]ccc23)CC1 (centres unmarked) [Example 70A, 1-(4-Indolyl)-1-[1-phenylsulphonyl-1,2,3,4-tetrahydroquinoline-2-ylmethyl]piperazine] | 7.8 nM
O=C(Cc1ccccc1Cl)N1c2ccccc2CCC1CN1CCN(c2cccc3[nH]ccc23)CC1 (centres unmarked) [Example 68A45, 1-[1-[2-(2-Chlorophenylacetyl)]-1,2,3,4-tetrahydroquinoline-2-ylmethyl]-4-(4-indolyl)piperazine] | 8.6 nM
O=C(N1CCCC1)N1c2ccccc2CCC1CN1CCN(c2cccc3[nH]ccc23)CC1 (centres unmarked) [Example 33, 1-(4-Indolyl)-4-(1-pyrrolidinecarbonyl-1,2,3,4-tetrahydroquinoline-2-ylmethyl)piperazine] | 47.7 nM
Cc1ccc(NC(=O)N2c3ccccc3CCC2CN2CCN(c3cccc4[nH]ccc34)CC2)cc1 (centres unmarked) [Example 69A3, 1-(4-Indolyl)-4-[1-(4-methylphenylaminocarbonyl)-1,2,3,4-tetrahydroquinoline-2-ylmethyl]piperazine] | 9.3 nM
Cc1cccc(NC(=O)N2c3ccccc3CCC2CN2CCN(c3cccc4[nH]ccc34)CC2)c1 (centres unmarked) [Example 69A1, 1-(4-Indolyl)-4-[1-(3-methylphenylaminocarbonyl)-1,2,3,4-tetrahydroquinoline-2-ylmethyl]piperazine] | 17.5 nM
O=C(C1CCCCC1)N1c2cc(F)ccc2CCC1CN1CCN(c2cccc3[nH]ccc23)CC1 (centres unmarked) [Example 46, 1-(1-Cyclohexanecarbonyl-7-fluoro-1,2,3,4-tetrahydroquinoline-2-ylmethyl)-4-(4-indolyl)piperazine] | 11.2 nM
CC(=O)N1CCC(C(=O)N2c3ccccc3CCC2CN2CCN(c3cccc4c3OCCO4)CC2)CC1 (centres unmarked) [Example 76A15, 1-[1-(1-acetyl-4-piperidinecarbonyl)-1,2,3,4-tetrahydroquinolin-2-ylmethyl]-4-(2,3-dihydrobenzo[1,4]dioxin-5-yl)piperazine] | 8.1 nM
O=C(CCc1cccnc1)N1c2ccccc2CCC1CN1CCN(c2cccc3[nH]ccc23)CC1 (centres unmarked) [Example 68A41, 1-(4-Indolyl)-4-[1-[3-(3-pyridylpropionyl)]-1,2,3,4-tetrahydroquinoline-2-ylmethyl]piperazine] | 49.1 nM
O=C(C1CCCCC1)N1c2ccccc2CCC1CN1CCC(c2cccc(Cl)c2)CC1 (centres unmarked) [Example 72A68, 4-(3-Chlorophenyl)-1-(1-cyclohexanecarbonyl-1,2,3,4-tetrahydroquinolin-2-ylmethyl)piperidine] | 38.6 nM
Cc1oc(S(=O)(=O)N2CCCC2)cc1C(=O)N1c2ccccc2CCC1CN1CCN(c2cccc3[nH]ccc23)CC1 (centres unmarked) [Example 68A59, 1-(4-Indolyl)-4-[1-(2-methyl-5-pyrrolidin-1-ylsulfonylfuran-3-carbonyl)-1,2,3,4-tetrahydroquinoline-2-ylmethyl]piperazine] | 46.5 nM
O=C(C1CCCCC1)N1c2ccccc2CCC1CN1CCN(c2cccc(Cl)n2)CC1 (centres unmarked) [Example 72A65, 1-(1-Cyclohexanecarbonyl-1,2,3,4-tetrahydroquinolin-2-ylmethyl)-4-(6-chloropyridin-2-yl)piperazine] | 15.5 nM
O=C(c1ccccc1)N1c2ccccc2CCC1CN1CCN(c2cccc3[nH]ccc23)CC1 (centres unmarked) [Example 24A4, 1-(1-Benzoyl-1,2,3,4-tetrahydroquinoline-2-ylmethyl)-4-(4-indolyl)piperazine] | 9.3 nM
O=C(COc1ccc(Cl)cc1)N1c2ccccc2CCC1CN1CCN(c2cccc3[nH]ccc23)CC1 (centres unmarked) [Example 68A51, 1-[1-[2-(4-Chlorophenoxy)acetyl]-1,2,3,4-tetrahydroquinoline-2-ylmethyl]-4-(4-indolyl)piperazine] | 15.6 nM
O=C(NCc1ccccc1)N1c2ccccc2CCC1CN1CCN(c2cccc3[nH]ccc23)CC1 (centres unmarked) [Example 69A9, 1-(1-Benzylaminocarbonyl-1,2,3,4-tetrahydroquinoline-2-ylmethyl)-4-(4-indolyl)piperazine] | 25.5 nM
CC(C)(C)OC(=O)N1CCC(C(=O)N2c3ccccc3CCC2CN2CCN(c3cccc4[nH]ccc34)CC2)CC1 (centres unmarked) [Example 71A3, 1-[1-[4-(1-tert-Butoxycarbonylpiperidino)carbonyl]-1,2,3,4-tetrahydroquinoline-2-ylmethyl]-4-(4-indolyl)piperazine] | 40.6 nM
O=C(N1CCCCC1)N1c2ccccc2CCC1CN1CCN(c2cccc3[nH]ccc23)CC1 (centres unmarked) [Example 36, 1-(4-Indolyl)-4-(1-piperidinocarbonyl-1,2,3,4-tetrahydroquinoline-2-ylmethyl)piperazine] | 15.6 nM
Cc1ccc2c(c1)CCC(CN1CCN(c3cccc4[nH]ccc34)CC1)N2C(=O)C1CCCCC1 (centres unmarked) [Example 32, 1-(1-Cyclohexanecarbonyl-6-methyl-1,2,3,4-tetrahydroquinoline-2-ylmethyl)-4-(4-indolyl)piperazine] | 2.8 nM
Cn1ccc2c(N3CCN(CC4CCc5ccccc5N4C(=O)C4CCCCC4)CC3)cccc21 (centres unmarked) [Example 15, 1-(1-Cyclohexanecarbonyl-1,2,3,4-tetrahydroquinoline-2-ylmethyl)-4-(1-methyl-4-indolyl)piperazine] | 8.9 nM

The remaining lines, values ahead:

Ki | SMILES
21.3 nM | COc1ccc(NC(=O)N2c3ccccc3CCC2CN2CCN(c3cccc4[nH]ccc34)CC2)cc1 (centres unmarked) [Example 69A13, 1(4-Indolyl)-4-[1-(4-methoxyphenylaminocarbonyl)-1,2,3,4-tetrahydroquinoline-2-ylmethyl]piperazine]
2.4 nM | COc1cc(F)ccc1N1CCN(CC2CCc3c(Cl)cccc3N2C(=O)C2CCCCC2)CC1 (centres unmarked) [Example 55, 1-(5-Chloro-1-cyclohexanecarbonyl-1,2,3,4-tetrahydroquinoline-2-ylmethyl)-4-(4-fluoro-2-methoxyphenyl)piperazine]
5.2 nM | O=C(C1CCCCC1)N1c2ccccc2CCC1CN1CCN(c2cc(Cl)ccc2Cl)CC1 (centres unmarked) [Example 35A19, 1-(1-Cyclohexanecarbonyl-1,2,3,4-tetrahydroquinoline-2-ylmethyl)-4-(2,5-dichlorophenyl)piperazine]
38.6 nM | CCNC(=O)N1c2ccccc2CCC1CN1CCN(c2cccc3[nH]ccc23)CC1 (centres unmarked) [Example 20, 1-(1-Ethylaminocarbonyl-1,2,3,4-tetrahydroquinoline-2-ylmethyl)-4-(4-indolyl)piperazine]
11 nM | O=C(C1CCCCC1)N1c2ccccc2CCC1CN1CCN(c2ccc(F)cc2F)CC1 (centres unmarked) [Example 72A18, 1-(1-Cyclohexanecarbonyl-1,2,3,4-tetrahydroquinolin-2-ylmethyl)-4-(2,4-difluorophenyl)piperazine]
2.1 nM | CC(C)(C)NC(=O)N1c2ccccc2CCC1CN1CCN(c2cccc3[nH]ccc23)CC1 (centres unmarked) [Example 69A12, 1-[1-(1,1-Dimethylethylaminocarbonyl)-1,2,3,4-tetrahydroquinoline-2-ylmethyl]-1-(4-indolyl)piperazine]
7.7 nM | CCc1ccccc1N1CCN(CC2CCc3ccccc3N2C(=O)C2CCCCC2)CC1 (centres unmarked) [Example 72A11, 1-(1-Cyclohexanecarbonyl-1,2,3,4-tetrahydroquinolin-2-ylmethyl)-4-(2-ethylphenyl)piperazine]
2 nM | COc1cc(F)ccc1N1CCN(CC2CCc3ccccc3N2C(=O)CC(C)(C)C)CC1 (centres unmarked) [Example 74A1, 1-(3,3-Dimethylbutanoyl-1,2,3,4-tetrahydroquinolin-2-ylmethyl)-4-(4-fluoro-2-methoxyhenyl)piperazine]
2.6 nM | CC(C)CC(=O)N1c2ccccc2CCC1CN1CCN(c2cccc3[nH]ccc23)CC1 (centres unmarked) [Example 68A12, 1-(4-Indolyl)-4-[1-(3-methylbutanoyl)-1,2,3,4-tetrahydroquinoline-2-ylmethyl]piperazine]
10.9 nM | Cc1cccc(N2CCN(CC3CCc4ccccc4N3C(=O)C3CCCCC3)CC2)c1 (centres unmarked) [Example 72A30, 1-(1-Cyclohexanecarbonyl-1,2,3,4-tetrahydroquinolin-2-ylmethyl)-4-(3-methylphenyl)piperazine]
17.9 nM | O=C1CC[C@H](C(=O)N2c3ccccc3CCC2CN2CCN(c3cccc4[nH]ccc34)CC2)N1 (stereo partly drawn) [Example 68A73, 1-(4-Indolyl)-4-[1-[(2R)-5-oxopyrrolidine-2-ylcarbonyl]-1,2,3,4-tetrahydroquinoline-2-ylmethyl]piperazine]
